Test results as given in PMC9533326 (Cancer discovery, 2021).
Where two headings read alike, the source gives them in different places.

Tests used:
relapsed/refractory ALL = details: https://www.accessdata.fda.gov/drugsatfda_docs/label/2019/021877s010lbl.pdf; cited from earlier work
[1] = for Dose reduction due to TEAEs: 2 patients each; for Discontinuation due to study drug related AEs: all patients; for Drug discontinued due to TEAEs: all patients (venetoclax 11, navitoclax 12 patients)
[2] = parameters: species or system human; details: in vivo; for Time post-dose at which Cmax was observed: human
[3] = earlier trial of navitoclax in lymphoid malignancies; cited from earlier work

Compound	Survival (median OS) reported in studies (relapsed/refractory ALL) [months]	Dose reduction due to TEAEs [1] [%]	Discontinuation due to study drug related AEs [1] [%]	Drug discontinued due to TEAEs [1] [%]	Time post-dose at which Cmax was observed [2] [h]	other results
blinatumomab: bispecific antibody	7.7					
COc1nc(N)nc2c1ncn2[C@@H]1O[C@H](CO)[C@@H](O)[C@@H]1O [nelarabine]	4.7					
inotuzumab ozogamicin	7.7					
CC1(C)CCC(CN2CCN(c3ccc(C(=O)NS(=O)(=O)c4ccc(NCC5CCOCC5)c([N+](=O)[O-])c4)c(Oc4cnc5[nH]ccc5c4)c3)CC2)=C(c2ccc(Cl)cc2)C1 [Venetoclax, venetoclax]		4.3	12.8	23.4	6 to 8	Recommended phase II dose ([1]; adult-equivalent, with navitoclax 50 mg (adults) or 25 mg (<45 kg)): 400 mg; Events of laboratory TLS ([1]; quick ramp-up to 400 mg venetoclax): 2 events
CC1(C)CCC(c2ccc(Cl)cc2)=C(CN2CCN(c3ccc(C(=O)NS(=O)(=O)c4ccc(N[C@H](CCN5CCOCC5)CSc5ccccc5)c(S(=O)(=O)C(F)(F)F)c4)cc3)CC2)C1 [Navitoclax, navitoclax]		4.3	10.6	25.5	4 to 8	Maximum tolerated dose [3]: 325 mg/day; Rate of grade 3/4 thrombocytopenia [3]: 52.7%; Recommended phase II dose (RPTD) ([1]; patients weighing <45 kg, in combination with 400 mg adult-equivalent venetoclax): 25 mg; Recommended phase II dose (RPTD) ([1]; patients weighing ≥45 kg (adults), in combination with 400 mg venetoclax): 50 mg; Impact on venetoclax pharmacokinetics [2]: no significant impact
